From US9000029B2, “Proline sulfonamide derivatives as orexin receptor antagonists” (Actelion Pharmaceuticals Ltd., priority 2010, dated 2015) come the findings set out here.

SMILES strings stand for the structures.

Data set [1] relates to Wistar Rats. Put plainly: Sedative effects: EEG, EMG and behavioural indices of alertness recorded by radiotelemetry. It is filed as in vivo, rat. The note with it: 100 mg/kg po; effects analyzed over 6 hours; compared to vehicle controls. How it is done: II. Biological Assays 1) Sedative Effects: EEG, EMG and Behavioural Indices of Alertness Recorded by Radiotelemetry In Vivo in Wistar Rats.
Electroencephalography (EEG) and Electromyography (EMG) signals were measured by telemetry using TL11M2-F20-EET miniature radiotelemetric implants (Data Science Int.) with two pairs of differential leads.
Surgical implantation was performed under general anesthesia with Ketamin/Xylazin, for cranial placement of one differential pair of EEG electrodes and one pair of EMG leads inserted in either side of the muscles of the neck. After surgery, rats recovered in a thermoregulated chamber and received analgesic treatment with subcutaneous buprenorphine twice a day for 2 d. They were then housed individually and allowed to recover for a minimum of 2 weeks. Thereafter, rats—in their home cage—were placed in a ventilated sound-attenuating box, on a 12-h light/12-h dark cycle, for acclimatization before continuous EEG/EMG recordings started. The telemetric technology that we used in this study allows accurate and stress-free acquisition of biosignals in rats placed in their familiar home cage environment, with no recording leads restricting their movements. Variables analyzed included four different stages of vigilance and sleep, spontaneous activity in the home cage and body temperature. Sleep and wake stages were evaluated using a rodent scoring software (Somnologica Science) directly processing electrical biosignals on 10 s contiguous epochs. The scoring is based on frequency estimation for EEG and amplitude discrimination for EMG and locomotor activity. Using these measurements, the software determines the probability that all components within each epoch best represent active waking (AW), quiet waking (QW), non-REM-sleep (NREM) or REM-sleep (REM). The percentage of total time spent in AW, QW, NREM- and REM-sleep was calculated per 12 h light or dark period. The latency to the onset of the first significant NREM- and REM-sleep episodes and the frequency and duration of those episodes were also calculated. AW, QW, NREM- and REM-sleep, home cage activity and body temperature were measured at baseline for at least one total circadian cycle (12 h-night, 12 h-day) before a test compound was administered. […] All variables were subsequently recorded for 12 h following administration of the orexin receptor antagonist.
The compound of Example 26 has been tested in this assay (oral dosage: 100 mg/kg po; effects analyzed over 6 hours): Results are: −26% on active wake, −51% on home cage activity, +28% on NREM sleep, +69% on REM sleep; when compared to vehicle controls.

Data set [2] deals with F344 rats. Put plainly: Fear-potentiated startle and forepaw grip strength. It is filed as in vivo, rat. The note with it: 100 and 300 mg/kg p.o. The text has this:
4) Effects of Compound of Example 26 on Fear-Potentiated Startle
The fear-potentiated startle (FPS) paradigm is a model of conditioned fear [Fendt M et al., Neuroscience Biobehav Rev. 1999, 23, 743-760]. Rats can be trained to associate an initially neutral, soon-to-be conditioned stimulus (CS; e.g., light) with an aversive, unconditioned stimulus (US; e.g., foot shock). When tested after training for their startle reflex response to brief (ms) noise bursts in the absence (no-CS) vs. the presence of the CS, rats generally show greater startle amplitudes during the presence of the CS which now serves as a predictor of shock. In humans a similar training procedure can be implemented and a FPS response can also be evoked in the presence of a shock-predicting CS.
Conditioned fear models including FPS mimic in particular the response to specific threats. […] Rather the compound may reduce those startle reactions as a consequence of reduced fear of the shock-context or reduced fear of the slightly aversive startle-eliciting noise pulses per se.
Male F344 rats were trained for two consecutive days (conditioning phase) to associate a light-stimulus with a foot shock. On the following day they were tested for their response to startle-eliciting noise stimuli which were delivered randomly under light (CS) or dark (no-CS) conditions. Two hours before the test rats were treated with one dose of compound of example 26 (0, 30, 100, 300 mg/kg p.o.). Average startle responses under light (CS) [FIG. 3 A)] and dark conditions (no-CS) [FIG. 3 B)] during the test day were measured and recorded as an electric signal (in mV). Following startle testing, rats underwent an additional forepaw grip strength (in g) [FIG. 3 C)] test to control for potential myorelaxant effects of the compound (dosed at 0, 30, 100, 300 mg/kg p.o.).

As for `COc1ccc(S(=O)(=O)N2CCC[C@H]2C(=O)Nc2cc(C)cc(C)c2)cc1` [Example 26, (S)-1-(4-Methoxy-benzenesulfonyl)-pyrrolidine-2-carboxylic acid (3,5-dimethyl-phenyl)-amide], in data set [1], the “effect on NREM sleep” value is “+28%”, the “effect on REM sleep” value is “+69%”, the “effect on active wake” value is −26% and the “effect on home cage activity” value was −51%. Further, in data set [2], the “forepaw grip strength (myorelaxant effects)” value is reported as “without affecting”. Also, in data set [2] (two hours before test), the “fear-potentiated startle response under CS conditions” value is recorded as “significantly reduced” and the “startle response under no-CS conditions” value is reported as “significantly reduced”.
